Several values for one entry are separate records, joined by “and”; a condition that tells them apart may be missing. Equal entries are not always repeated.
Columns and labels:
[1] = system: citric acid induced cough responses; assay: Citric acid induced cough, theobromine and neuropathic pain agent (Example 9)
[2] = system: citric acid induced cough; conditions: guinea-pigs (Minamizawa et al. 2006); cited from earlier work
[3] = system: citric acid induced cough responses; assay: Citric acid induced cough, theobromine and ACE inhibitor (Example 11)
[4] = system: citric acid induced cough responses; assay: Citric acid induced cough, theobromine and NSAID (Example 8)
[5] = system: citric acid induced cough responses; assay: Citric acid induced cough, theobromine and antihistamine (Example 6)
[6] = system: citric acid induced cough responses; assay: Citric acid induced cough, oral and intratracheal theobromine (Example 2); conditions: 30 min prior
[7] = system: citric acid induced cough responses; assay: Citric acid induced cough, theobromine and opiate antitussive agent (Example 4); type: in vivo, guinea pig
[8] = system: citric acid induced cough responses; assay: Citric acid induced cough, oral theobromine (Example 1); type: in vivo, guinea pig; conditions: 120 min prior to citric acid exposure
[9] = system: citric acid induced cough responses; assay: Citric acid induced cough, theobromine and expectorant (Example 7)
[10] = system: citric acid induced cough responses; assay: Citric acid induced cough, theobromine and terpene (Example 10)
[11] = system: citric acid induced cough responses; assay: Citric acid induced cough, theobromine and non-opiate antitussive agent (Example 3)
coughing condition = assay: Treatment of a coughing condition, patient cases (Example 12); type: in vivo, human; conditions: person, after about 2 days
[12] = system: citric acid induced cough responses; assay: Citric acid induced cough, theobromine and decongestant (Example 5); type: in vivo, guinea pig
cough = conditions: clinical treatment; apparent success attributed to placebo effect (Ramsey et al.); cited from earlier work
[13] = gabapentin 60 mg/kg p.o. only, 60 min prior
[14] = captopril 30 mg/kg p.o., 120 min prior
[15] = ibuprofen 30 mg/kg p.o. only, 60 min prior
[16] = theobromine 10 mg/kg p.o., 120 min prior
[17] = theobromine 7 mg/kg p.o., 120 min prior
[18] = theobromine 30 mg/kg p.o., 120 min prior
[19] = theobromine 10 mg/kg p.o., 30 min prior
[20] = codeine 25 mg/kg i.p., 30 min prior
[21] = guaifenesin 30 mg/kg p.o., 60 min prior

With `NCC1(CC(=O)O)CCCCC1` [Gabapentin] the “onset time to the first cough” value [1, 13] was 90 ± 6 s and the “total number of coughs” value [1, 13] was 24±8 coughs.

In the case of `CN[C@@H](C)[C@@H](O)c1ccccc1` [pseudoephedrine], the “efficacy in the citric acid induced cough model” value [2] is listed as “very limited efficacy”.

In the case of `C[C@H](CS)C(=O)N1CCC[C@H]1C(=O)O` [captopril], the “onset time to the first cough” value [3, 14] is reported as 34 ± 12 s and the “total number of coughs” value [3, 14] is reported as 45±12 coughs.

With `CC(C)Cc1ccc(C(C)C(=O)O)cc1` (stereo not drawn) [Ibuprofen] the “onset time to the first cough” value [4, 15] was 70 ± 5 s and the “total number of coughs” value [4, 15] was 22±6 coughs.

In the case of `Cn1cnc2c1c(=O)[nH]c(=O)n2C` [theobromine, 3,7-dihydro-3,7-dimethyl-1H-purine-2,6-dione], the “Cough Events Mean Number” value [5, 16] is reported as 15 ± 2 coughs, the “Cough Events Mean Onset Time” value [5, 16] is reported as 103 ± 15 s and the “Cough Events Mean Number” value ([6]; theobromine 3 mg/kg i.t.) is reported as 17 ± 2 coughs. For the same molecule, the “Cough Events Mean Onset Time” value ([6]; theobromine 3 mg/kg i.t.) was 115 ± 29 s, the “Cough Events Mean Number” value ([6]; theobromine 10 mg/kg i.t.) was 10.3±2 coughs and 10 ± 2 coughs and the “Cough Events Mean Onset Time” value ([6]; theobromine 10 mg/kg i.t.) was 134 ± 18 s. The “Cough Events Mean Number” value ([6]; theobromine 30 mg/kg i.t.) was 6 ± 1 coughs, the “Cough Events Mean Onset Time” value ([6]; theobromine 30 mg/kg i.t.) was 210 ± 22 s and the “Cough Events Mean Number” value ([6]; theobromine 30 mg/kg p.o.) was 12 ± 2 coughs. The “Cough Events Mean Onset Time” value ([6]; theobromine 30 mg/kg p.o.) was 126 ± 20 s, the “Cough Events Mean Number” value [7, 17] was 19 ± 3 coughs and the “Cough Events Mean Onset Time” value [7, 17] was 91 ± 13 s. The “Cough Events Mean Number” value ([8]; theobromine 3 mg/kg p.o.) was 25 ± 4 coughs, the “Cough Events Mean Onset Time” value ([8]; theobromine 3 mg/kg p.o.) was 73 ± 17 s and the “Cough Events Mean Number” value ([8]; theobromine 7 mg/kg p.o.) was 18 ± 3 coughs. The “Cough Events Mean Onset Time” value ([8]; theobromine 7 mg/kg p.o.) was 98 ± 36 s, the “number of citric acid induced coughs” value [3, 18] was 10±4 coughs and the “onset time to the first cough” value [3, 18] was 125 ± 22 s. For the same molecule, the “Cough Events Mean Number” value [9, 19] was 15 ± 3 coughs, the “Cough Events Mean Onset Time” value [9, 19] was 126 ± 12 s and the “number of citric acid induced coughs” value [10, 16] was 14±5 coughs. For the same molecule, the “onset time to the first cough” value [10, 16] was 120 ± 23 s, the “Cough Events Mean Number” value [11, 16] was 13 ± 2 coughs and the “Cough Events Mean Onset Time” value [11, 16] was 139 ± 22 s. For the same molecule, the “coughing episodes as indicated by patient” value (coughing condition; cough as side-effect of ACE inhibitor medication, theobromine in conjunction with the ACE inhibitor) was “decreased coughing episodes”, the “coughing episodes as indicated by patient” value (coughing condition; cough due to angiotensin II receptor antagonist medication, theobromine in conjunction with it) was “decreased coughing episodes” and the “number of citric acid induced coughs” value [4, 16] was 15±3 coughs. For the same molecule, the “onset time to the first cough” value [4, 16] was 113 ± 15 s, the “number of citric acid induced coughs” value [1, 16] was 14±4 coughs and the “onset time to the first cough” value [1, 16] was 108 ± 19 s. For the same molecule, the “Cough Events Mean Number” value [12, 16] was 13 ± 3 coughs and the “Cough Events Mean Onset Time” value [12, 16] was 156 ± 15 s.

For `COc1ccc2c3c1O[C@H]1[C@@H](O)C=C[C@H]4[C@@H](C2)N(C)CC[C@@]341` [codeine], the “Cough Events Mean Number” value [5, 20] was 5 ± 1 coughs, the “Cough Events Mean Onset Time” value [5, 20] was 236 ± 22 s and the “Cough Events Mean Number” value ([6]; codeine 25 mg/kg i.p.) was 5 ± 1 coughs. The “Cough Events Mean Onset Time” value ([6]; codeine 25 mg/kg i.p.) was 337 ± 51 s, the “Cough Events Mean Number” value [7, 20] was 6 ± 1 coughs and the “Cough Events Mean Onset Time” value [7, 20] was 195 ± 33 s. For the same molecule, the “number of citric acid induced coughs” value [3, 20] was 7±3 coughs, the “onset time to the first cough” value [3, 20] was 170 ± 28 s and the “number of citric acid induced coughs” value [10, 20] was 6±2 coughs. For the same molecule, the “onset time to the first cough” value [10, 20] was 170 ± 28 s, the “Cough Events Mean Number” value [11, 20] was 7 ± 2 coughs and the “Cough Events Mean Onset Time” value [11, 20] was 170 ± 32 s. For the same molecule, the “number of citric acid induced coughs” value [4, 20] was 8±3 coughs, the “onset time to the first cough” value [4, 20] was 150 ± 32 s and the “number of citric acid induced coughs” value [1, 20] was 9±4 coughs. For the same molecule, the “onset time to the first cough” value [1, 20] was 161 ± 31 s, the “Cough Events Mean Number” value [12, 20] was 6 ± 1 coughs and the “Cough Events Mean Onset Time” value [12, 20] was 195 ± 25 s.

In the case of `COc1ccc2c(c1)[C@]13CCCC[C@@H]1[C@H](C2)N(C)CC3` [Dextromethorphan], the “efficacy in treating cough” value (cough) is given as “no efficacy”.

For `COc1ccccc1OCC(O)CO` (stereo not drawn) [guaifenesin], the “Cough Events Mean Number” value [9, 21] was 28 ± 3 coughs and the “Cough Events Mean Onset Time” value [9, 21] was 52 ± 10 s.

Reference: patent publication US10420812B2, “Drug combinations and uses in treating a coughing condition” (Infirst Healthcare Limited, priority 2009, dated 2019)
